Results from paper PMC3849131, “^18 F-click labeling and preclinical evaluation of a new ^18 F-folate for PET imaging” (EJNMMI Research, 2013).

Assays:
[1] = Relative lipophilicity (capacity factor k’) by reversed-phase HPLC; type: physicochemical; conditions: methanol-phosphoric acid buffer eluent, pH 2
Description: The relative lipophilicity of 6 was determined as capacity factor k’ (k’ = (tretention - tsolvent) / tsolvent) by reversed-phase HPLC using a methanol-phosphoric acid buffer eluent system at pH 2. […] This method has already been described elsewhere. The capacity factor k’ (k’ = (tretention - tsolvent) / tsolvent) was determined using reversed-phase HPLC and enables different (radio)folates to be compared based on their polarity. The values determined can be used to give hint to the in vivo behavior in terms of the degree of hepatobiliary excretion by comparison with literature examples.

folate receptor = target: T1, folate receptor (Homo sapiens, UniProt P15328); test: Displacement assay with [^3H]folic acid on FR-positive human KB cells; type: binding; conditions: Cheng-Prusoff equation, assuming Kd of [^3H]folic acid 1 nM
T1 construct: using [^3H]folic acid and human KB cells in cell suspension; endogenous in cells; host or cells: human KB cells
Description: FR-positive human KB cells were kept under folate-deficient conditions to adjust the folate concentration levels to that of the human serum.
Figure 1 Displacement assay. […] Experiments were conducted in triplicate (n = 3).

KB tumor-bearing mice = test: In vivo μPET imaging of KB tumor-bearing mice; conditions: scan 60 to 90 min p.i., approximately 13 MBq
Description: All animal experiments were approved by the local veterinary department and complied with Swiss and local laws on animal protection. Female CD-1 nude mice (Charles River, Sulzfeld, Germany) were fed with a folate-deficient rodent diet (Harlan Laboratories, Indianapolis, IN, USA). After an acclimatization period of 5 to 7 days, human KB tumor cells (5 × 10^6 cells in 0.1 mL sterile phosphate-buffered saline (PBS)) were inoculated subcutaneously on both shoulders of each mouse. Twelve days later, the animals were intravenously injected with [^18 F]12 (approximately 5 MBq, 100 μL). […] Animals were euthanized at the indicated time points, and selected organs and tissues were collected, weighed, and measured in a γ-counter. The incorporated radioactivity was expressed as percentage injected dose per gram (%ID/g) of tissue. PET/computed tomography (CT) experiments were performed with a dedicated small-animal PET/CT scanner (eXplore Vista PET/CT, Sedecal, Algete, Spain/GE Healthcare). Animals were intravenously injected with [^18 F]12 (approximately 13 MBq, 100 μL). For scanning, mice were anesthetized with isoflurane in an air/oxygen mixture. The PET scans were acquired from 60 to 90 min post-injection (p.i.) followed by a CT. After acquisition, PET data were reconstructed in user-defined time frames, and the fused datasets of PET and CT were analyzed with PMOD software (version 3.4). […]

T1 sequence (P15328 25-257): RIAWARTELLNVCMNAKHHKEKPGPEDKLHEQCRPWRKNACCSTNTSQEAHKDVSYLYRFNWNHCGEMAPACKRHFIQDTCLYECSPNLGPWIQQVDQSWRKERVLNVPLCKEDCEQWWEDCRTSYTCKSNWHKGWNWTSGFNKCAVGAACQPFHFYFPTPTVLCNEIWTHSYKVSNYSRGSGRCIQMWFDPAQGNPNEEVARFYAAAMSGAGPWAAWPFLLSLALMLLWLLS

Substance: 16-(4-(((2-amino-4-oxo-3,4-dihydropteridin-6-yl)methyl)amino)benzamido)-1-(4-(2-(2-(2-[^18 F]fluoroethoxy)ethoxy)ethoxy)-1H-1,2,3-triazol-1-yl)-13-oxo-3,6,9-trioxa-12-azaheptadecan-17-oic acid [[^18 F]12]
- capacity factor k’ [1]: 1.12
- Ki (folate receptor): 1.6 nM
- tumor visualization in μPET (KB tumor-bearing mice): facilitated visualization of FR-positive tumors on the maximum intensity projection
